# US9302988B2, “Fluoromethyl-substituted pyrrole carboxamides” (GRÜNENTHAL GMBH, priority 2012, dated 2016)
# Target: T1, Human CaV2.2 channels (Homo sapiens, UniProt Q00975)
# T1 construct: expressed in transfected cells
# Assay: Fluorescent assay for CaV2.2 channels using potassium depolarization to induce channel opening (FLIPR, Fluo-4)
# Type: cell-based
# Conditions: 3 μM test compound, 30 mM KCl, HEK293 cells stably expressing human CaV2.2; read-out: %-Inhib (CaV2.2) @3 μM @30 mM KCl
# Excerpt: In the process, the Ca^2+ influx is quantified in the FLIPR assay with the aid of a Ca^2+-sensitive dye (type Fluo-4, Molecular Probes Europe BV, Leiden, the Netherlands) in a fluorescent imaging plate reader (FLIPR 3, Molecular Devices, Sunnyvale, USA), as described hereinafter.
# 2.1 Fluorescent Assay for CaV2.2 Channels Using Potassium Depolarization to Induce Channel Opening
# Human CaV2.2 channels were stably expressed in HEK293 cells together with alpha2-delta and beta subunits of voltage gated calcium channels. In addition, an inwardly rectifying potassium channel (Kir2.3) was stably expressed in these cells to augment control of the cell membrane potential by the concentration of extracellular potassium ions. Raise of the extracellular potassium concentration leads to depolarization of the membrane potential and thus regulates the voltage dependent state of CaV2.2 channels. For preparation, cells were seeded in black poly-D-lysine coated 96-well plates (Becton Dickinson, Biocoat 4640) in 100 μl medium [500 ml DMEM/F-12 plus Glutamax (Invitrogen 31331-093) plus 5.5 ml MEM NEAA 100× (Invitrogen 11140-035) plus 50 ml FBS decomplemented (Invitrogen 10270-106) plus 4.4 ml Geneticin (Invitrogen 10131-027) plus 1.1 ml Hygromycin B (Invitrogen 10687-010) plus 68.75 μl Puromycin (Clontech, 631306)] at a cell density of 45.000 cells per well.
# Plates were incubated at 37° C. (5% CO2) for 20 to 23 hours. On the day of experiment medium was discarded and cells were loaded with Fluo 4 by addition of 100 μl of basic assay buffer (10 mM HEPES, 30 mM KCl, 120 mM NaCl, 0.8 mM CaCl2, 1.7 mM MgCl2, 10 mM Glucose, 0.1% BSA. pH 7.4) containing 2 μM Fluo 4 (Molecular Probes; F-14201), 0.01% pluronic acid (Molecular Probes; P-6866) and 2.5 mM probenecid (Molecular Probes; P36400). Cells were incubated in the dark at 25° C. for 60 min. Then the dye containing buffer was discarded and 100 μl basic assay buffer was added. Subsequently cells were incubated in the dark at 25° C. for 15 min. 25 μl of basic assay buffer with or without test compound were added and cells were incubated again in the dark at 25° C. for 15 min. Fluorescence intensity was measured on a FLIPR 3 instrument (Molecular Devices Corp., Sunnyvale, Calif.) with excitation at 480 nm and emission at 535 nm. After continuously reading fluorescence for 30 sec, 50 μl of basic assay buffer containing 210 mM KCl (NaCl omitted) were added for depolarization. Peak fluorescent signal intensity was determined and the amplitude of the peak signal, normalized to base line, was used to measure channel inhibition by test compounds.
# T1 sequence (Q00975 whole entry): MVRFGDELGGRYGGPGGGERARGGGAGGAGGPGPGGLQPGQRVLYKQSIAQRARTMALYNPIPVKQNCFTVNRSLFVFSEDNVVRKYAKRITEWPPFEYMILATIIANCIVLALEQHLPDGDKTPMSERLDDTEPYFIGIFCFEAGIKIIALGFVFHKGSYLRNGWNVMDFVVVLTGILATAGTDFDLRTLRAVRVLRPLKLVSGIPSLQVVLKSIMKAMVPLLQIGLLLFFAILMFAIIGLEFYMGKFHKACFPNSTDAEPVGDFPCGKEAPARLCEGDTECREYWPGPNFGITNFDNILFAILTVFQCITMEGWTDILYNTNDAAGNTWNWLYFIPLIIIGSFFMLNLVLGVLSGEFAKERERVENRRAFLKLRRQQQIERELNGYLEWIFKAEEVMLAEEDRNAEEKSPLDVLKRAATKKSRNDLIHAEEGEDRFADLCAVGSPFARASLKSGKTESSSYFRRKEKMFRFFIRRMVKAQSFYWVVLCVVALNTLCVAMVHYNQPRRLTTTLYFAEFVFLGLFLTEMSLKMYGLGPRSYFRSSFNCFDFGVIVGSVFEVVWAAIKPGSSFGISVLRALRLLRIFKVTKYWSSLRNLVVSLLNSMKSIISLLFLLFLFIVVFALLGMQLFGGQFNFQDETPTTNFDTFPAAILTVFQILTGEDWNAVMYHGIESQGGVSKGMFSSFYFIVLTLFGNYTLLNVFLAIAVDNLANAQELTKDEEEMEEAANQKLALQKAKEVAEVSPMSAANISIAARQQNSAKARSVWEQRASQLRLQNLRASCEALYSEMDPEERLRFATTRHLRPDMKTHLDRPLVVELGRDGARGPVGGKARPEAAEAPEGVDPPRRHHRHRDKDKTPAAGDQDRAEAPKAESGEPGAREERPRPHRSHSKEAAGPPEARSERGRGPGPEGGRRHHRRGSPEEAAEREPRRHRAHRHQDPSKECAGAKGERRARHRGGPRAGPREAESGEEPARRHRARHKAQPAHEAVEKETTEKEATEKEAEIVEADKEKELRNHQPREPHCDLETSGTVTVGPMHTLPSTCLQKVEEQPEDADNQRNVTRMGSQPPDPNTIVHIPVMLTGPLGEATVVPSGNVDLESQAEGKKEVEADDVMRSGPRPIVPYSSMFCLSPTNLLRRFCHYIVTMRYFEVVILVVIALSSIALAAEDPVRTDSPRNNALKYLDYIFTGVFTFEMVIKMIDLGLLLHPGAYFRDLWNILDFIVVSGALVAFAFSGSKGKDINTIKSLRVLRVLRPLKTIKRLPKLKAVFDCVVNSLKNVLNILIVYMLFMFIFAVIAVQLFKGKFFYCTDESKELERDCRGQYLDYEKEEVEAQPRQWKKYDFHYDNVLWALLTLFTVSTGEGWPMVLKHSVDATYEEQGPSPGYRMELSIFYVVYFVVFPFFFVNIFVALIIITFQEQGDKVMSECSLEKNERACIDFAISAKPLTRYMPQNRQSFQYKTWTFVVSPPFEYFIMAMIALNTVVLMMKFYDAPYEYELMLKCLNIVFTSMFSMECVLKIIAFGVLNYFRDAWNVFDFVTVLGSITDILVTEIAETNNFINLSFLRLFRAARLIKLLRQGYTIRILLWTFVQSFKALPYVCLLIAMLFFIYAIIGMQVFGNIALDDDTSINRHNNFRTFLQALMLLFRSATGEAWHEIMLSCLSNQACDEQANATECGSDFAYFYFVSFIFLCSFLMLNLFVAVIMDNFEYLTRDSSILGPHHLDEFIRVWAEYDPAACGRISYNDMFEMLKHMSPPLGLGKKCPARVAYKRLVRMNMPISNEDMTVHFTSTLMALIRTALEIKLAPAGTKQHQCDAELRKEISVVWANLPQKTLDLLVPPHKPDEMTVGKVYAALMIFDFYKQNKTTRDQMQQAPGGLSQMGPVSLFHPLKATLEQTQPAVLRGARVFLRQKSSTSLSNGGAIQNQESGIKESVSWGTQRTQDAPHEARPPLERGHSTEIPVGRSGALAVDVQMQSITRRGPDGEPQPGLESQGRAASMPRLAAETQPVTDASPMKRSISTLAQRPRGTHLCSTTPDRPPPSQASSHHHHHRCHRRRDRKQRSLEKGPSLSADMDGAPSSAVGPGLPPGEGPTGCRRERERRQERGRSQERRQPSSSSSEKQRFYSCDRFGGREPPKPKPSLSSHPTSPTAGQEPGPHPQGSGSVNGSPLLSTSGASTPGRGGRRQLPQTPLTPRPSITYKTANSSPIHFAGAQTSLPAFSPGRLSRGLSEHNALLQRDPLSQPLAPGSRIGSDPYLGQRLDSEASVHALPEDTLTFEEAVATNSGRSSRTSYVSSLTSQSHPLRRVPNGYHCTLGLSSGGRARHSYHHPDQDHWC
# T1 sequence (P54289 25-1103, further chain): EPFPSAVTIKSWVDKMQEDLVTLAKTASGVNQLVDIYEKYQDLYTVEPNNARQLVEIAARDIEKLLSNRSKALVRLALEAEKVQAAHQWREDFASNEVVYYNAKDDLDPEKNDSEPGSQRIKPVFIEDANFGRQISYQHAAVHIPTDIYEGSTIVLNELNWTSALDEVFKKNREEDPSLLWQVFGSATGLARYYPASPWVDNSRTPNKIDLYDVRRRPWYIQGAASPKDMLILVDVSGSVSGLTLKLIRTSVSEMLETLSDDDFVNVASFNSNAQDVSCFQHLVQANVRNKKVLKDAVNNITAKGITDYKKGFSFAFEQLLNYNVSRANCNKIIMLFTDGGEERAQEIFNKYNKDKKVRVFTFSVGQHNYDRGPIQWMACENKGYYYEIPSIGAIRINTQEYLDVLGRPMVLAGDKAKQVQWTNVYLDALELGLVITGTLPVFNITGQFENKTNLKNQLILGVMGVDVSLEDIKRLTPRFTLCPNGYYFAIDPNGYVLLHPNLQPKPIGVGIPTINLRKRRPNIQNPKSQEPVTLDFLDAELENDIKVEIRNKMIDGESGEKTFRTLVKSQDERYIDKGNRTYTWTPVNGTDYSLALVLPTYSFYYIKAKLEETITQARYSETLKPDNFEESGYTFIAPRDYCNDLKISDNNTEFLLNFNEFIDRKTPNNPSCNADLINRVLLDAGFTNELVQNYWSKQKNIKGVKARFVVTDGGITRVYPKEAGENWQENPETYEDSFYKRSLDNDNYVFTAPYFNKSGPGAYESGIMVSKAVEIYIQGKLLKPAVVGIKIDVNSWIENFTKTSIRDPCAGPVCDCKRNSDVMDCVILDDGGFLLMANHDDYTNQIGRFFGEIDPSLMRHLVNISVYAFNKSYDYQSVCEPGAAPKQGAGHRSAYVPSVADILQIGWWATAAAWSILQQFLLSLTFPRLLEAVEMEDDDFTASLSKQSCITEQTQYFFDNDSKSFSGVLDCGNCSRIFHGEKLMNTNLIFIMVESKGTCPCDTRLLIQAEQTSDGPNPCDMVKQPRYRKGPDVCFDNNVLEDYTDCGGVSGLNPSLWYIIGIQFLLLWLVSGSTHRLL
# T1 sequence (P54284 whole entry, further chain): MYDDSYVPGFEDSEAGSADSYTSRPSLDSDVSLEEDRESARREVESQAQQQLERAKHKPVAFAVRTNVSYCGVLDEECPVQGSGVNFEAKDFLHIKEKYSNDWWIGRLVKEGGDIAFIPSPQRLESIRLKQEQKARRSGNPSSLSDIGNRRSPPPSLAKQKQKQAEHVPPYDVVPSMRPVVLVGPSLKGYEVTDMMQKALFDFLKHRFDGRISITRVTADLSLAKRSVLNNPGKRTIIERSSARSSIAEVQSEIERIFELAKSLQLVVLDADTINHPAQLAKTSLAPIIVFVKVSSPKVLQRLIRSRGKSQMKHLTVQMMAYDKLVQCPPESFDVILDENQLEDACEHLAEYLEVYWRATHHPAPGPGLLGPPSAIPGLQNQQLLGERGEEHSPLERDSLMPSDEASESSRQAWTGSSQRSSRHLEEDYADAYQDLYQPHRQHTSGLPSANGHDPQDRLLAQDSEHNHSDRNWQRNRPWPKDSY
row,Structure (SMILES),inhibition at 3 µM [%]
1,"Cc1c(-c2ccc(Cl)cc2)c(C(=O)N(C)CC(C)(C)C)n(Cc2cccc(Cl)c2)c1C(F)(F)F [SC-53, 3-(4-Chlorophenyl)-1-[(3-chlorophenyl)-methyl]-N-(2,2-dimethyl-propyl)-N,4-dimethyl-5-(trifluoromethyl)-1H-pyrrole-2-carboxylic acid amide]",75 to 95
2,"Cc1c(-c2ccc(Cl)cc2)c(C(=O)N(C)CC(C)(C)O)n(Cc2ccccc2)c1C(F)(F)F [SC-54, 1-Benzyl-3-(4-chlorophenyl)-N-(2-hydroxy-2-methyl-propyl)-N,4-dimethyl-5-(trifluoromethyl)-1H-pyrrole-2-carboxylic acid amide]",> 95
3,"Cc1c(-c2ccc(Cl)cc2)c(C(=O)N2CCNC(=O)C2)n(Cc2cccc(Cl)c2)c1C(F)(F)F [SC-55, 4-[3-(4-Chlorophenyl)-1-[(3-chlorophenyl)-methyl]-4-methyl-5-(trifluoromethyl)-1H-pyrrole-2-carbonyl]-piperazin-2-one]",> 95
4,"Cc1c(-c2ccc(Cl)cc2)c(C(=O)N(C)CCS(C)(=O)=O)n(Cc2cccc(Cl)c2)c1C(F)(F)F [SC-56, 3-(4-Chlorophenyl)-1-[(3-chlorophenyl)-methyl]-N,4-dimethyl-N-(2-methylsulfonyl-ethyl)-5-(trifluoromethyl)-1H-pyrrole-2-carboxylic acid amide]",> 95
5,"Cc1c(-c2ccc(Cl)cc2)c(C(=O)N(C)CC(C)(C)O)n(Cc2cccc(Cl)c2)c1C(F)(F)F [SC-57, 3-(4-Chlorophenyl)-1-[(3-chlorophenyl)-methyl]-N-(2-hydroxy-2-methyl-propyl)-N,4-dimethyl-5-(trifluoromethyl)-1H-pyrrole-2-carboxylic acid amide]",> 95
6,"Cc1c(-c2ccc(Cl)cc2F)c(C(=O)N(C)CC(C)(C)O)n(Cc2ccccc2)c1C(F)(F)F [SC-58, 1-Benzyl-3-(4-chloro-2-fluoro-phenyl)-N-(2-hydroxy-2-methyl-propyl)-N,4-dimethyl-5-(trifluoromethyl)-1H-pyrrole-2-carboxylic acid amide]",> 95
7,"Cc1c(-c2ccc(Cl)cc2F)c(C(=O)N(C)CC(C)(C)C)n(Cc2ccccc2)c1C(F)(F)F [SC-59, 1-Benzyl-3-(4-chloro-2-fluoro-phenyl)-N-(2,2-dimethyl-propyl)-N,4-dimethyl-5-(trifluoromethyl)-1H-pyrrole-2-carboxylic acid amide]",> 95
8,"Cc1c(-c2ccc(Cl)cc2)c(C(=O)N(C)CC2(C)COC2)n(Cc2ccccc2)c1C(F)(F)F [SC-60, 1-Benzyl-3-(4-chlorophenyl)-N,4-dimethyl-N-[(3-methyl-oxetan-3-yl)-methyl]-5-(trifluoromethyl)-1H-pyrrole-2-carboxylic acid amide]",> 95
9,"Cc1c(-c2ccc(Cl)cc2F)c(C(=O)N2CCNC(=O)C2)n(Cc2ccccc2)c1C(F)(F)F [SC-61, 4-[1-Benzyl-3-(4-chloro-2-fluoro-phenyl)-4-methyl-5-(trifluoromethyl)-1H-pyrrole-2-carbonyl]-piperazin-2-one]",> 95
10,"Cc1c(-c2ccc(Cl)cc2F)c(C(=O)N2CCOCC2)n(Cc2ccccc2)c1C(F)(F)F [SC-62, [1-Benzyl-3-(4-chloro-2-fluoro-phenyl)-4-methyl-5-(trifluoromethyl)-1H-pyrrol-2-yl]-morpholin-4-yl-methanone]",> 95
11,"Cc1c(-c2ccc(Cl)cc2)c(C(=O)N(C)C2CCS(=O)(=O)C2)n(Cc2ccccc2)c1C(F)(F)F (stereo not shown) [SC-63, 1-Benzyl-3-(4-chlorophenyl)-N-(1,1-dioxo-thiolan-3-yl)-N,4-dimethyl-5-(trifluoromethyl)-1H-pyrrole-2-carboxylic acid amide]",> 95
12,"Cc1c(-c2ccc(Cl)cc2F)c(C(=O)N(C)CCS(C)(=O)=O)n(Cc2ccccc2)c1C(F)(F)F [SC-64, 1-Benzyl-3-(4-chloro-2-fluoro-phenyl)-N,4-dimethyl-N-(2-methylsulfonyl-ethyl)-5-(trifluoromethyl)-1H-pyrrole-2-carboxylic acid amide]",> 95
13,"Cc1c(-c2ccc(Cl)cc2)c(C(=O)N(C)CC2(O)CC2)n(Cc2ccccc2)c1C(F)(F)F [SC-65, 1-Benzyl-3-(4-chlorophenyl)-N-[(1-hydroxy-cyclopropyl)-methyl]-N,4-dimethyl-5-(trifluoromethyl)-1H-pyrrole-2-carboxylic acid amide]",> 95
14,"O=C1CN(C(=O)c2c(-c3ccc(Cl)cc3)cc(C(F)(F)F)n2Cc2ccccc2)CCN1 [SC-66, 4-[1-Benzyl-3-(4-chlorophenyl)-5-(trifluoromethyl)-1H-pyrrole-2-carbonyl]-piperazin-2-one]",75 to 95
15,"CN(CCS(C)(=O)=O)C(=O)c1c(-c2ccc(Cl)cc2)cc(C(F)(F)F)n1Cc1ccccc1 [SC-67, 1-Benzyl-3-(4-chlorophenyl)-N-methyl-N-(2-methylsulfonyl-ethyl)-5-(trifluoromethyl)-1H-pyrrole-2-carboxylic acid amide]",> 95
16,"CN(CC(C)(C)O)C(=O)c1c(-c2ccc(Cl)cc2)cc(C(F)(F)F)n1Cc1ccccc1 [SC-68, 1-Benzyl-3-(4-chlorophenyl)-N-(2-hydroxy-2-methyl-propyl)-N-methyl-5-(trifluoromethyl)-1H-pyrrole-2-carboxylic acid amide]",> 95
17,"CN(CCS(C)(=O)=O)C(=O)c1c(-c2ccc(Cl)cc2)cc(C(F)(F)F)n1Cc1cccc(Cl)c1 [SC-69, 3-(4-Chlorophenyl)-1-[(3-chlorophenyl)-methyl]-N-methyl-N-(2-methylsulfonyl-ethyl)-5-(trifluoromethyl)-1H-pyrrole-2-carboxylic acid amide]",75 to 95
18,"CN(CC(C)(C)O)C(=O)c1c(-c2ccc(Cl)cc2)cc(C(F)(F)F)n1Cc1cccc(Cl)c1 [SC-70, 3-(4-Chlorophenyl)-1-[(3-chlorophenyl)-methyl]-N-(2-hydroxy-2-methyl-propyl)-N-methyl-5-(trifluoromethyl)-1H-pyrrole-2-carboxylic acid amide]",> 95
19,"CN(CC(C)(C)C)C(=O)c1c(-c2ccc(Cl)cc2)cc(C(F)(F)F)n1Cc1cccc(Cl)c1 [SC-71, 3-(4-Chlorophenyl)-1-[(3-chlorophenyl)-methyl]-N-(2,2-dimethyl-propyl)-N-methyl-5-(trifluoromethyl)-1H-pyrrole-2-carboxylic acid amide]",75 to 95
20,"O=C(c1c(-c2ccc(Cl)cc2)cc(C(F)(F)F)n1Cc1ccccc1)N1CC(O)C1 [SC-72, [1-Benzyl-3-(4-chlorophenyl)-5-(trifluoromethyl)-1H-pyrrol-2-yl]-(3-hydroxy-azetidin-1-yl)-methanone]",75 to 95
21,"CN(C(=O)c1c(-c2ccc(Cl)cc2)cc(C(F)(F)F)n1Cc1ccccc1)C1CCOCC1 [SC-73, 1-Benzyl-3-(4-chlorophenyl)-N-methyl-N-tetrahydro-pyran-4-yl-5-(trifluoromethyl)-1H-pyrrole-2-carboxylic acid amide]",> 95
22,"O=C(c1c(-c2ccc(Cl)cc2)cc(C(F)(F)F)n1Cc1cccc(Cl)c1)N1CCOCC1 [SC-74, [3-(4-Chlorophenyl)-1-[(3-chlorophenyl)-methyl]-5-(trifluoromethyl)-1H-pyrrol-2-yl]-morpholin-4-yl-methanone]",> 95
23,"CC1(C)CN(C(=O)c2c(-c3ccc(Cl)cc3)cc(C(F)(F)F)n2Cc2ccccc2)CCO1 [SC-75, [1-Benzyl-3-(4-chlorophenyl)-5-(trifluoromethyl)-1H-pyrrol-2-yl]-(2,2-dimethyl-morpholin-4-yl)-methanone]",75 to 95
24,"CN(CC1CC1)C(=O)c1c(-c2ccc(Cl)cc2)cc(C(F)(F)F)n1Cc1ccccc1 [SC-76, 1-Benzyl-3-(4-chlorophenyl)-N-(cyclopropyl-methyl)-N-methyl-5-(trifluoromethyl)-1H-pyrrole-2-carboxylic acid amide]",75 to 95
25,"CN(C(=O)c1c(-c2ccc(Cl)cc2)cc(C(F)(F)F)n1Cc1ccccc1)C(C)(C)C [SC-77, 1-Benzyl-N-tert-butyl-3-(4-chlorophenyl)-N-methyl-5-(trifluoromethyl)-1H-pyrrole-2-carboxylic acid amide]",75 to 95
